Patent publication US11738031B2, “Compositions and methods for preventing or treating muscle conditions” (The Board of Trustees of the Leland Stanford Junior …, priority 2017, dated 2023)
“Also recorded” adds a separate entry of the source.

How the values were obtained:
Format in all cases: cell-based, mouse
MuSCs [1] = experiment: VisionBlue metabolic viability dose-response assay; settings: dose-response 1-200 ng/ml PGE2
Procedure: (§1) Proliferation assays: To assay proliferation, we used three different assays (hemocytometer, VisionBlue, and EdU). For each, we seeded MuSCs on flat hydrogels (hemocytometer and VisionBlue) or collagen-coated plates (EdU assay) at a density of 500 cells per cm^2 surface area. For hemocytometer cell number count, we collected cells at indicated timepoints by incubation with 0.5% trypsin in PBS for 5 min at 37° C. and quantified them using a hemocytometer at least 3 times. Additionally, we used the VisionBlue Quick Cell Viability Fluorometric Assay Kit (BioVision, catalog #K303) as a readout for cell growth in culture. Briefly, we incubated MuSCs with 10% VisionBlue in culture medium for 3 h, and measured fluorescence intensity on a fluorescence plate reader (Infinite M1000 PRO, Tecan) at Ex=530-570 nm, Em=590-620 nm. […] We quantified EdU positive cells using the MetaMorph Image Analysis software (Molecular Devices). Data analyses were blinded, where researchers performing cell scoring were unaware of the treatment condition given to sample groups analyzed.
(§2) To assay proliferation, we used three different assays (hemocytometer, VisionBlue, and EdU). […] For hemocytometer cell number count, we collected cells at indicated timepoints by incubation with 0.5% trypsin in PBS for 5 min at 37° C. and quantified them using a hemocytometer at least 3 times. […]

aged MuSCs = experiment: Clonal aged MuSC proliferation and fate by time-lapse microscopy (48 h)
Text: Clonal muscle stem cell proliferation and fate analyses: We assayed clonal muscle stem cell proliferation by time-lapse microscopy as previously described^56. Briefly, we treated isolated aged MuSCs with PGE2 (Cayman Chemical) or vehicle (DMSO) for 24 hr. After five days of growth on hydrogels, cells were reseeded at a density of 500 cells per cm^2 surface area in hydrogel microwells with 600 μm diameter. For time-lapse microscopy we monitored cell proliferation for those wells with single cells beginning 12 hr (day 0) to two days after seeding and recorded images every 3 min at 10× magnification using a PALM/AxioObserver Z1 system (Carl Zeiss MicroImaging) with a custom environmental control chamber and motorized stage. We changed medium every other day in between the acquisition time intervals. We analyzed time-lapse image sequences using the Baxter Algorithms for Cell Tracking and Lineage Reconstruction to identify and track single cells and generate lineage trees^5,6,8-10.
Viable and dead cells were distinguished in time-lapse sequences based on phase-contrast boundary and motility maintenance or loss, respectively. […] The values were estimated using the equations described in^6, and found in Table 1. We denote the proliferation rates in the two intervals p24 and p48 and the corresponding death rates d24 and d48. […] The modeled cell counts in the two time intervals are given by […]

MuSCs [2] = experiment: EdU incorporation proliferation assay; settings: PGE2 10 ng/ml for 24 h, EdU 1 hr
Procedure: as §1, §2

[3] = aged MuSC clones, acute PGE2 treatment, time-lapse 48 h
[4] = first 24 hour interval, aged MuSCs
[5] = second 24 hour interval, aged MuSCs
[6] = transient 1 day PGE2, 48 h tracking

## CCCCC[C@H](O)/C=C/[C@H]1[C@H](O)CC(=O)[C@@H]1C/C=C\CCCC(=O)O [PGE2, prostaglandin E2]
MuSCs [1]
  lowest drug concentration that promotes a robust MuSC proliferation response: 10 ng/mL
Aged MuSCs; [3]
  percent increase in dead cell count: 0.1%
  percent increase in live cell count: 5.4%
Aged MuSCs; [4]
  d24, estimated death rate: 0.0067 per hours
  p24, estimated proliferation rate: 0.0475 per hours
Aged MuSCs; [5]
  d48, estimated death rate: 0.0012 per hours
  p48, estimated proliferation rate: 0.0538 per hours
Aged MuSCs; [6]
  cell death in aged MuSC clones: profound reduction in cell death
  proliferation of aged MuSC clones: marked increase in proliferation
Aged MuSCs; transient 1 day PGE2, 48 h tracking, spanning 6 generations
  cumulative cell numbers of aged MuSC clones: remarkable increase in cumulative cell numbers
MuSCs [2]
  cell division assayed by EdU incorporation: increased cell division; also recorded: increase in cell division
